According to US20250144067A1, “PERSONALIZED STARVATION THERAPY FOR CANCER” (Faeth Therapeutics, Inc., priority 2021, published 2025):
Structures can show the parent of a compound that is named as a salt.

Experiments:
[1] = tested on: NCI-H292 lung cancer cells; assay: FDA drug screening, complete media vs cholesterol-free media without statin (TABLE 1); assay type: cell-based, human
[2] = tested on: NCI-H292 lung cancer cells; assay: FDA drug screening, complete media vs cholesterol-free media with simvastatin (TABLE 2); assay type: cell-based, human; conditions: for Cholesterol-free media + simvastatin (0.04 μM) / Complete Media: NCI-H292 cells
[3] = NCI-H292 cells, cholesterol-free media without statin
[4] = complete vs cholesterol-free media, greater than 0 enhanced anti-cancer activity, about 0 neutral, below 0 antagonists
[5] = cholesterol-free media with simvastatin 0.04 μM, FDA drug library screen (TABLE 2)
[6] = complete media, FDA drug library screen (TABLE 2)
[7] = complete media minus cholesterol-free media + simvastatin (0.04 μM), >0 enhanced anti-cancer activity, about 0 neutral, <0 antagonist
[8] = Complete minus Cholesterol-free, greater than 0 enhanced anti-cancer activity, about 0 neutral, below 0 antagonist
[9] = NCI-H292 cells, FDA drug library screen, cholesterol-free media without statin
[10] = NCI-H292 cells, FDA drug library screen, complete media
[11] = cholesterol-free media with simvastatin 0.04 μM, cell growth value in FDA drug screen
[12] = complete media, cell growth value in FDA drug screen
[13] = complete media minus cholesterol-free media + simvastatin, >0 enhanced anti-cancer activity, about 0 neutral, <0 antagonist
[14] = Complete minus Cholesterol-free, >0 enhanced anti-cancer activity, about 0 neutral, <0 antagonist
[15] = NCI-H292 cells, cholesterol-free media without statin, FDA drug library screen
[16] = NCI-H292 cells, complete media, FDA drug library screen
[17] = FDA library drug in cholesterol-free media with simvastatin 0.04 μM
[18] = FDA library drug in complete media
[19] = complete media vs cholesterol-free media + simvastatin (0.04 μM), >0 enhanced anti-cancer activity, about 0 neutral, <0 antagonist
[20] = Complete minus Cholesterol-free, greater than 0 enhanced anti-cancer activity, about 0 neutral, below 0 antagonists
[21] = NCI-H292 cells in cholesterol-free media without statin
[22] = NCI-H292 cells in complete media
[23] = FDA drug library screen, cholesterol-free media with simvastatin 0.04 μM
[24] = FDA drug library screen, complete media

## Nc1nc2nc[nH]c2c(=S)[nH]1 [6-Thioguanine]
[1]; [3]
  Cholesterol-free: 0.7053
[1]; NCI-H292 cells, complete media
  Complete: 0.3153
[1]; [4]
  Difference: −0.39
[2]; [5]
  Cholesterol-free media + simvastatin (0.04 μM): 0.7013
[2]; [6]
  Complete Media: 0.7052
[2]; [7]
  Difference: 0.00

## CC(C)(Oc1ccc(Cl)cc1)C(=O)O [Clofibric acid]
[1]; [8]
  Difference: −0.18
[1]; [9]
  Cholesterol-free: 0.9932
[1]; [10]
  Complete: 0.8121
[2]; [11]
  Cholesterol-free media + simvastatin (0.04 μM): 1.015
[2]; [12]
  Complete Media: 1.071
[2]; [13]
  Difference: 0.06

## CCCCCN(C)CCC(O)(P(=O)(O)O)P(=O)(O)O [Ibandronate (Sodium Monohydrate)]
[1]; [14]
  Difference: −0.03
[1]; [15]
  Cholesterol-free: 1.101
[1]; [16]
  Complete: 1.074
[2]; [17]
  Cholesterol-free media + simvastatin (0.04 μM): 1.077
[2]; [18]
  Complete Media: 0.796
[2]; [19]
  Difference: −0.28

## Cc1nc2n(c(=O)c1CCN1CCC(c3noc4cc(F)ccc34)CC1)CCCC2O (centres unmarked) [Paliperidone]
[1]; [8]
  Difference: −0.18
[1]; [9]
  Cholesterol-free: 0.8391
[1]; [10]
  Complete: 0.6569
[2]; [17]
  Cholesterol-free media + simvastatin (0.04 μM): 1.086
[2]; [18]
  Complete Media: 0.8023
[2]; [19]
  Difference: −0.28

## CCCc1cc(C(N)=S)ccn1 [Prothionamide]
[1]; [20]
  Difference: −0.62
[1]; [21]
  Cholesterol-free: 1.391
[1]; [22]
  Complete: 0.7758
[2]; [11]
  Cholesterol-free media + simvastatin (0.04 μM): 1.039
[2]; [12]
  Complete Media: 1.099
[2]; [13]
  Difference: 0.06

## Clc1ccc(C(OCCN2CCCCC2)c2ccccc2)cc1 (centres unmarked) [Cloperastine (hydrochloride)]
[1]; [14]
  Difference: −0.28
[1]; [3]
  Cholesterol-free: 1.087
[1]; NCI-H292 cells, complete media
  Complete: 0.8022
[2]; [23]
  Cholesterol-free media + simvastatin (0.04 μM): 1.648
[2]; [24]
  Complete Media: 1.547
[2]; [19]
  Difference: −0.10

## Cc1cccc(C)c1N(CC(=O)Nc1ccc(-c2ncon2)cc1)C(=O)C1CCS(=O)(=O)CC1 [Amenamevir]
[1]; [8]
  Difference: −0.08
[1]; [9]
  Cholesterol-free: 0.9508
[1]; [10]
  Complete: 0.8718
[2]; [23]
  Cholesterol-free media + simvastatin (0.04 μM): 0.9047
[2]; [24]
  Complete Media: 1.06
[2]; [13]
  Difference: 0.16

## O=C(O)CCc1nc(-c2ccccc2)c(-c2ccccc2)o1 [Oxaprozin]
[1]; [8]
  Difference: −0.11
[1]; [9]
  Cholesterol-free: 1.125
[1]; [10]
  Complete: 1.011
[2]; [5]
  Cholesterol-free media + simvastatin (0.04 μM): 0.8941
[2]; [6]
  Complete Media: 0.904
[2]; [7]
  Difference: 0.01

## O=C1O[C@H]([C@@H](O)CO)C(O)=C1O [L-Ascorbic acid (sodium salt)]
[1]; [8]
  Difference: −0.14
[1]; [9]
  Cholesterol-free: 0.9664
[1]; [10]
  Complete: 0.8232
[2]; [5]
  Cholesterol-free media + simvastatin (0.04 μM): 0.9802
[2]; [6]
  Complete Media: 0.9199
[2]; [7]
  Difference: −0.06

## Cc1c(Cl)cccc1Nc1ccccc1C(=O)O [Tolfenamic Acid]
[1]; [3]
  Cholesterol-free: 1.332
[1]; NCI-H292 cells, complete media
  Complete: 0.9309
[1]; [4]
  Difference: −0.40
[2]; [11]
  Cholesterol-free media + simvastatin (0.04 μM): 0.9725
[2]; [12]
  Complete Media: 0.9986
[2]; [13]
  Difference: 0.03

## FC(F)(F)C(F)(F)C(F)(F)C(F)(F)C(F)(F)C(F)(F)C(F)(F)C(F)(F)Br [Perflubron]
[1]; [20]
  Difference: −0.50
[1]; [21]
  Cholesterol-free: 1.905
[1]; [22]
  Complete: 1.408
[2]; [23]
  Cholesterol-free media + simvastatin (0.04 μM): 0.901
[2]; [24]
  Complete Media: 1.248
[2]; [13]
  Difference: 0.35

## Hydrocortisone hemisuccinate
[1]; [20]
  Difference: −0.57
[1]; [22]
  Complete: 0.5102
[2]; [11]
  Cholesterol-free media + simvastatin (0.04 μM): 0.9423
[2]; [12]
  Complete Media: 1.019
[2]; [13]
  Difference: 0.08

## Cc1cc(N2CCN([C@@H]3CN[C@H](C(=O)N4CCSC4)C3)CC2)n(-c2ccccc2)n1 [Teneligliptin]
[1]; [3]
  Cholesterol-free: 1.328
[1]; NCI-H292 cells, complete media
  Complete: 0.9852
[1]; complete vs cholesterol-free media, […]
  Difference: −0.34
[2]; [23]
  Cholesterol-free media + simvastatin (0.04 μM): 0.6861
[2]; [24]
  Complete Media: 1.012
[2]; complete media minus cholesterol-free media + simvastatin, […]
  Difference: 0.33

## CC(C)C[C@H](NC(=O)CNC(=O)c1cc(Cl)ccc1Cl)B(O)O [Ixazomib]
[1]; [14]
  Difference: −0.06
[1]; [15]
  Cholesterol-free: 0.05045
[1]; [16]
  Complete: −0.01336
[2]; [5]
  Cholesterol-free media + simvastatin (0.04 μM): 0.01223
[2]; [6]
  Complete Media: −0.009398
[2]; [7]
  Difference: −0.02

## CCS(=O)(=O)CCn1c([N+](=O)[O-])cnc1C [Tinidazole]
[1]; [8]
  Difference: −0.13
[1]; [9]
  Cholesterol-free: 1.121
[1]; [10]
  Complete: 0.9876
[2]; drug in cholesterol-free media with simvastatin 0.04 μM
  Cholesterol-free media + simvastatin (0.04 μM): 0.8398
[2]; drug in complete media
  Complete Media: 0.6611
[2]; [19]
  Difference: −0.18
